According to patent US7335632B2, “Beta-secretase inhibitors and methods of use thereof” (CoMentis, Inc., priority 2001, dated 2008):

Key:
memapsin 2 = memapsin 2 (Homo sapiens, UniProt P56817); experiment: Inhibition of memapsin 2 beta-secretase activity toward fluorogenic substrate FS-2; type: biochemical; conditions: pH 4, 37° C., 20 minutes pre-incubation, substrate FS-2, tight-binding model; read-out: M2 Ki
Procedure: Potency of compounds were determined by measurement of their inhibition of memapsin 2 activity toward a fluorescent substrate. […] Briefly, assays were performed at pH 4, 37° C., by pre-incubation of memapsin 2 enzyme with compound for 20 minutes. Activity measure was initiated by addition of a fluorogenic substrate FS-2 (Bachem Americas, Torrance, Calif.). Fluorescent signal increase over time was measured as a rate of hydrolysis of the peptide substrate.

Cathepsin D = Cathepsin D (Homo sapiens, UniProt P07339); experiment: Inhibition of cathepsin D activity (substrate peptide […], MALDI-TOF); type: biochemical; conditions: pH 4.1, 37 degrees C., substrate NH3-[…]-CO2, MALDI-TOF; read-out: Cath D Ki
memapsin 1 = target: T1, memapsin 1 (Homo sapiens, UniProt Q9Y5Z0); experiment: Inhibition of memapsin 1 beta-secretase activity (substrate peptide […], MALDI-TOF); type: biochemical; conditions: pH 4.1, 37 degrees C., substrate NH3-ELDLAVEFWHDR-CO2, MALDI-TOF; read-out: M1 Ki
T1 sequence (Q9Y5Z0 63-518): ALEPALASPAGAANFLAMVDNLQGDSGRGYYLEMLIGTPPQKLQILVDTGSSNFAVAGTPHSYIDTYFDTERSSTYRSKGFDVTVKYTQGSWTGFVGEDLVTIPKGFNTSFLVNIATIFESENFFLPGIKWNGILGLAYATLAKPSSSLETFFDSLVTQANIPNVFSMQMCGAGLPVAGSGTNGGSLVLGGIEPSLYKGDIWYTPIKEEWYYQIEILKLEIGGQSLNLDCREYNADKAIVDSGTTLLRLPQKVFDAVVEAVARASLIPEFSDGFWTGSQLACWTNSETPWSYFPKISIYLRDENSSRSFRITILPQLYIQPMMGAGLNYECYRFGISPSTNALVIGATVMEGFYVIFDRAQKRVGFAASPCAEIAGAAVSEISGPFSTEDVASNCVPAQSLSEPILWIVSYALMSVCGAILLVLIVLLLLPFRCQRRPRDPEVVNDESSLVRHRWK

Aβ production = experiment: Cellular Aβ IC50 determination (Aβ40 sandwich ELISA); type: cell-based; conditions: Cricetulus griseus, Chinese hamster ovary cells over-expressing human APP695 with London and Swedish mutations, 24 h
Procedure: The potency of compounds against memapsin 2 activity was determined in a cellular assay of Aβ production. […] Chinese hamster ovary cells that over-express human APP695 with the London and Swedish mutations were seeded in multi-well plates at 10% confluency. Compounds were dissolved in DMSO to concentrations near 1 mM, and diluted into culture media to a final concentration near 4 μM (final 0.4% DMSO). Compounds were diluted serially and applied to cells in multi-well plates 48 h after seeding. Incubation was continued in 5% CO2 at 37 degrees C. for 24 h. Aliquots were removed and assayed for Aβ40 content using a sandwich ELISA (BioSource International). Amount of Aβ40 over the range of concentration of compounds, relative to control incubations, were fit to a 4-parameter IC50 model.

Sequence of memapsin 2 (P56817 46-501): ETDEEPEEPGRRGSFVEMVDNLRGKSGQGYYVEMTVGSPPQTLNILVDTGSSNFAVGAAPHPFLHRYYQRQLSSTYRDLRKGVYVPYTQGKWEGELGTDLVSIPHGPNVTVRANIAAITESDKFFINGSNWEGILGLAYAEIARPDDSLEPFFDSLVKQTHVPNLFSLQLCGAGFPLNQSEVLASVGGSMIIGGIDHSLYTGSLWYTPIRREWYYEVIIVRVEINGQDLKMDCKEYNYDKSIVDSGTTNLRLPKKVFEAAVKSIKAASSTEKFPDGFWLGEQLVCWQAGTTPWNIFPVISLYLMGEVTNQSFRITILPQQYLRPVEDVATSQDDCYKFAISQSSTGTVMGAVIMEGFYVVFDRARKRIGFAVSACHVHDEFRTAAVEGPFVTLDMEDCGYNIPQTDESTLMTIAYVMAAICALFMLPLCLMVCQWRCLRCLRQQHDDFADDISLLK
Sequence of Cathepsin D (P07339 65-412, species assumed): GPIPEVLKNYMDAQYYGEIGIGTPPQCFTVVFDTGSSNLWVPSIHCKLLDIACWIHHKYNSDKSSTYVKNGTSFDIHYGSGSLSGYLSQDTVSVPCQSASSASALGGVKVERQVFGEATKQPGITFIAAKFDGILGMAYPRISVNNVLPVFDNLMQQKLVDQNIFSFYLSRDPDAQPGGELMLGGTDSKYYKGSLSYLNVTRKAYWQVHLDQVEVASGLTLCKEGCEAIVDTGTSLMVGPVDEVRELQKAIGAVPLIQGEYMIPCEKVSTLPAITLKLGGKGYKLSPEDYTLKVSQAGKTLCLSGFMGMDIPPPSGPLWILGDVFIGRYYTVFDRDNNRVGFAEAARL

| Ki (memapsin 2) [nM] | Ki (Cathepsin D) [nM] | Ki (memapsin 1) [nM] | IC50 (Aβ production) [nM] | SMILES |
| --- | --- | --- | --- | --- |
| < 100 | < 100 | < 100 | < 6000 | COCSC[C@H](NC(=O)OCc1nc(C)cs1)C(=O)N[C@H](CC(C)C)[C@@H](O)C[C@@H](C)C(=O)N[C@@H](C(=O)NCC(C)C)C(C)C [Structure 36] |
| < 100 | 100 to 1000 | 100 to 1000 | > 100000 | Cc1csc(CC(C)C(=O)N[C@@H](CS(C)(=O)=O)C(=O)N[C@H](CC(C)C)[C@@H](O)C[C@@H](C)C(=O)N[C@@H](C(=O)NCC(C)C)C(C)C)n1 (some centres unmarked) [Structure 37] |
| < 100 | < 100 | 100 to 1000 | > 100000 | CSC[C@H](NC(=O)CCc1nc(C)cs1)C(=O)N[C@H](CC(C)C)[C@@H](O)C[C@@H](C)C(=O)N[C@@H](C(=O)NCC(C)C)C(C)C [Structure 39] |
| < 100 | 100 to 1000 | 100 to 1000 | > 100000 | Cc1csc(CCC(=O)N[C@@H](CS(C)(=O)=O)C(=O)N[C@H](CC(C)C)[C@@H](O)C[C@@H](C)C(=O)N[C@@H](C(=O)NCC(C)C)C(C)C)n1 [Structure 40] |
| < 100 | < 100 | 100 to 1000 | 6000 to 100000 | CSC[C@H](NC(=O)OCc1nc(C)cs1)C(=O)N[C@H](CC(C)C)[C@@H](O)C[C@@H](C)C(=O)N[C@H](CC(C)C)C(=O)NC(C)C [Structure 43] |
| < 100 | 100 to 1000 | 100 to 1000 | < 6000 | Cc1csc(COC(=O)N[C@@H](CS(C)(=O)=O)C(=O)N[C@H](CC(C)C)[C@@H](O)C[C@@H](C)C(=O)N[C@H](CC(C)C)C(=O)NC(C)C)n1 [Structure 46] |
| < 100 | < 100 | 100 to 1000 | < 6000 | Cc1csc(COC(=O)N[C@@H](CSCC(C)C)C(=O)N[C@H](CC(C)C)[C@@H](O)C[C@@H](C)C(=O)N[C@@H](C(=O)NCC(C)C)C(C)C)n1 [Structure 47] |
| < 100 | 100 to 1000 | 100 to 1000 | < 6000 | Cc1nc(COC(=O)N[C@@H](CS(C)(=O)=O)C(=O)N[C@H](CC(C)C)[C@@H](O)C[C@@H](C)C(=O)N[C@@H](C(=O)NCc2ccncc2)C(C)C)c(C)o1 [Structure 48] |
| < 100 | 100 to 1000 | < 100 | > 100000 | Cc1csc(COC(=O)N[C@@H](CS(=O)(=O)CC(C)C)C(=O)N[C@H](CC(C)C)[C@@H](O)C[C@@H](C)C(=O)N[C@@H](C(=O)NCC(C)C)C(C)C)n1 [Structure 49] |
| 100 to 1000 | < 100 | < 100 | 6000 to 100000 | CSC[C@H](NC(=O)OCc1nc(C)oc1C)C(=O)N[C@H](Cc1ccccc1)[C@@H](O)C[C@@H](C)C(=O)N[C@@H](C(=O)NCC(C)C)C(C)C [Structure 50] |
| < 100 | < 100 | < 100 | < 6000 | CSC[C@H](NC(=O)OCc1nc(C)sc1C)C(=O)N[C@H](CC(C)C)[C@@H](O)C[C@@H](C)C(=O)N[C@@H](C(=O)NCC(C)C)C(C)C [Structure 53] |
| < 100 | 100 to 1000 | < 100 | < 6000 | Cc1nc(COC(=O)N[C@@H](CS(C)(=O)=O)C(=O)N[C@H](CC(C)C)[C@@H](O)C[C@@H](C)C(=O)N[C@@H](C(=O)NCC(C)C)C(C)C)c(C)s1 [Structure 54] |
| < 100 | < 100 | < 100 | 6000 to 100000 | Cc1csc(COC(=O)N[C@@H](CS(C)(=O)=O)C(=O)N[C@H](Cc2ccccc2)[C@@H](O)C[C@@H](C)C(=O)N[C@@H](C(=O)NCC(C)C)C(C)C)n1 [Structure 55] |
| < 100 | < 100 | 100 to 1000 | > 100000 | Cc1csc(COC(=O)N[C@@H](CSC2CCCC2)C(=O)N[C@H](CC(C)C)[C@@H](O)C[C@@H](C)C(=O)N[C@@H](C(=O)NCC(C)C)C(C)C)n1 [Structure 56] |
| < 100 | 100 to 1000 | 100 to 1000 | < 6000 | Cc1nc(COC(=O)N[C@@H](CS(C)(=O)=O)C(=O)N[C@H](CC(C)C)[C@@H](O)C[C@@H](C)C(=O)N[C@@H](C(=O)NN(C)C)C(C)C)c(C)o1 [Structure 57] |
| < 100 | 100 to 1000 | 100 to 1000 | < 6000 | Cc1csc(COC(=O)N[C@@H](CS(=O)(=O)C2CCCC2)C(=O)N[C@H](CC(C)C)[C@@H](O)C[C@@H](C)C(=O)N[C@@H](C(=O)NCC(C)C)C(C)C)n1 [Structure 58] |
| < 100 | 100 to 1000 | 100 to 1000 | 6000 to 100000 | Cc1nc(COC(=O)N[C@@H](CS(=O)(=O)C(C)C)C(=O)N[C@H](CC(C)C)[C@@H](O)C[C@@H](C)C(=O)N[C@@H](C(=O)NCC(C)C)C(C)C)c(C)o1 [Structure 59] |
| < 100 | < 100 | 100 to 1000 | < 6000 | Cc1nc(COC(=O)N[C@@H](CSC(C)C)C(=O)N[C@H](CC(C)C)[C@@H](O)C[C@@H](C)C(=O)N[C@@H](C(=O)NCC(C)C)C(C)C)c(C)o1 [Structure 60] |
| 100 to 1000 | < 100 | 100 to 1000 | < 6000 | CSC[C@H](NC(=O)[C@@H](C)Cc1nc(C)cs1)C(=O)N[C@H](CC(C)C)[C@@H](O)C[C@@H](C)C(=O)N[C@@H](C(=O)NCC(C)C)C(C)C [Structure 64] |
| < 100 | < 100 | 100 to 1000 | < 6000 | CCC(C)SC[C@H](NC(=O)OCc1nc(C)cs1)C(=O)N[C@H](CC(C)C)[C@@H](O)C[C@@H](C)C(=O)N[C@@H](C(=O)NCC(C)C)C(C)C (some centres unmarked) [Structure 66] |
| < 100 | 100 to 1000 | 100 to 1000 | > 100000 | CCC(C)S(=O)(=O)C[C@H](NC(=O)OCc1nc(C)cs1)C(=O)N[C@H](CC(C)C)[C@@H](O)C[C@@H](C)C(=O)N[C@@H](C(=O)NCC(C)C)C(C)C (some centres unmarked) [Structure 67] |
| < 100 | 100 to 1000 | 100 to 1000 | 6000 to 100000 | Cc1csc(COC(=O)N[C@@H](CS(C)(=O)=O)C(=O)N[C@H](CC(C)C)[C@@H](O)C[C@@H](C)C(=O)N[C@@H](C(=O)NCC(C)C)c2ccccc2)n1 [Structure 68] |
| < 100 | 100 to 1000 | 100 to 1000 | > 100000 | CCc1nc(COC(=O)N[C@@H](CS(C)(=O)=O)C(=O)N[C@H](CC(C)C)[C@@H](O)C[C@@H](C)C(=O)N[C@@H](C(=O)NCC(C)C)C(C)C)c(C)s1 [Structure 71] |
| < 100 | < 100 | 100 to 1000 | < 6000 | CCC(CC)SC[C@H](NC(=O)OCc1nc(C)cs1)C(=O)N[C@H](CC(C)C)[C@@H](O)C[C@@H](C)C(=O)N[C@@H](C(=O)NCC(C)C)C(C)C [Structure 72] |
| < 100 | 100 to 1000 | 100 to 1000 | 6000 to 100000 | CCC(CC)S(=O)(=O)C[C@H](NC(=O)OCc1nc(C)cs1)C(=O)N[C@H](CC(C)C)[C@@H](O)C[C@@H](C)C(=O)N[C@@H](C(=O)NCC(C)C)C(C)C [Structure 73] |
| < 100 | 100 to 1000 | 100 to 1000 | < 6000 | CCc1nc(COC(=O)N[C@@H](CS(C)(=O)=O)C(=O)N[C@H](CC(C)C)[C@@H](O)C[C@@H](C)C(=O)N[C@@H](C(=O)NCC(C)C)C(C)C)c(C)o1 [Structure 74] |
| < 100 | < 100 | 100 to 1000 | < 6000 | CC[C@@H](Cc1nc(C)cs1)C(=O)N[C@@H](CSC)C(=O)N[C@H](CC(C)C)[C@@H](O)C[C@@H](C)C(=O)N[C@@H](C(=O)NCC(C)C)C(C)C [Structure 75] |
| < 100 | < 100 | 100 to 1000 | < 6000 | CC[C@@H](Cc1nc(C)cs1)C(=O)N[C@@H](CS(C)(=O)=O)C(=O)N[C@H](CC(C)C)[C@@H](O)C[C@@H](C)C(=O)N[C@@H](C(=O)NCC(C)C)C(C)C [Structure 77] |
| 100 to 1000 | < 100 | < 100 | 6000 to 100000 | Cc1nc(COC(=O)N[C@@H](CS(C)(=O)=O)C(=O)N[C@H](Cc2cc(F)cc(F)c2)[C@@H](O)C[C@@H](C)C(=O)N[C@@H](C(=O)NCC(C)C)C(C)C)c(C)o1 [Structure 78] |
